Holding throughout (experiment): NCI tumour cell line growth inhibition, 48 h
The subject of experiment [1] is ACHN renal.
The test system of experiment [2] is CAKI-1 renal.
Experiment [3] concerns MOLT-4 leukemia.
Experiment [4] relates to OVCAR-8 ovarian.
In experiment [5] the test system is PC-3 prostate.
Experiment [6] has as its system RPMI-8226 leukemia.
The test system of experiment [7] is SF-268 CNS.
Experiment [8] has as its system TK-10 renal.
Experiment [9] has as its system U251 CNS.
Experiment [10] has as its system UACC-62 melanoma.

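Method: 48-hour compound exposure of cells in 96-well plates, five concentrations, linear interpolation of endpoints. The concentration for 50% growth inhibition is given as GI50. TGI marks complete inhibition of growth.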 Where only a bound is given, the exact number is not on record here.

Regarding `CCn1c(-c2nonc2N)nc2c(C#CCN)ncc(OCCCN)c21`, the GI50 in experiment [1], in [2], in experiment [3], in experiment [4], in [5] and in [6] was > 25 µM throughout. For the same compound, the GI50 in [7], in [8], in [9] and in [10] was > 25 µM each time. The TGI in experiment [1], in experiment [2], in [3], in experiment [4], in [5] and in [6] was > 25 µM throughout. For the same compound, the TGI in experiment [7], in experiment [8], in experiment [9] and in experiment [10] was > 25 µM each time.
In the case of `COc1cc2ncn(-c3cc(OCc4ccccc4Cl)c(C(N)=O)s3)c2cc1OC`, the GI50 in [1] was 1.58 µM; in [2] it was 3.02 µM; in experiment [3], 0.118 µM; in [4], 0.23 µM; in experiment [5] it was 1 µM; in [6] it was 0.341 µM. The GI50 in experiment [7] is 0.187 µM; in experiment [8], 3.04 µM; in experiment [9], 0.224 µM; in [10], 0.283 µM. Besides, the TGI in experiment [1] was > 25 µM; in experiment [2] it was > 25 µM; in experiment [3], > 25 µM; in experiment [4], > 20.7 µM; in [5], > 25 µM; in experiment [6] it was > 25 µM. Besides, the TGI was > 13 µM in experiment [7], > 22 µM in experiment [8], 10.4 µM in [9] and > 25 µM in [10].
`O=C(Nc1nc2ccccc2s1)OCC(F)(F)F`: the GI50 in experiment [1], in [2], in [3], in [4], in experiment [5] and in experiment [6] was > 100 µM each time. In addition, the GI50 in experiment [7], in experiment [8], in [9] and in experiment [10] was > 100 µM throughout. In addition, the TGI in experiment [1], in experiment [2], in experiment [3], in [4], in experiment [5] and in [6] was > 100 µM in each case. Also, the TGI in experiment [7], in experiment [8], in experiment [9] and in [10] was > 100 µM each time.
Consider `Oc1ccccc1/C=N/Nc1ccc2ccccc2n1`, for which the GI50 in experiment [1] was 2.86 µM; in experiment [2] it was 2.98 µM; in experiment [3] it was 2.6 µM; in experiment [4], 4.23 µM; in experiment [5], 4.5 µM; in [6] it was 3.45 µM. The GI50 in experiment [7] is 3.09 µM; in experiment [8] it was 7.69 µM; in [9], 4.23 µM; in experiment [10], 3.17 µM. In addition, the TGI in experiment [1] is 68.6 µM; in [2] it was > 100 µM; in experiment [3] it was > 100 µM; in experiment [4], 59.1 µM; in experiment [5], > 100 µM; in experiment [6], > 100 µM. Besides, the TGI was 69.3 µM in experiment [7], 77.5 µM in [8], 31.5 µM in experiment [9] and > 100 µM in experiment [10].
`NC(N)=N/N=C(/c1ccccc1)c1ccc(F)cc1`: the GI50 in experiment [1] is 0.75 µM; in experiment [2], 0.404 µM; in experiment [3], 2.67 µM; in experiment [4], 0.593 µM; in experiment [5] it was 0.382 µM; in [6], 0.558 µM. Moreover, the GI50 was 0.543 µM in experiment [7], 0.506 µM in [8], 0.337 µM in experiment [9] and 0.421 µM in [10]. In addition, the TGI in experiment [1] is 16.4 µM; in experiment [2] it was 16.1 µM; in experiment [3] it was > 38.1 µM; in experiment [4], > 35.1 µM; in [5], 18.8 µM; in [6], 21.6 µM. Moreover, the TGI is 14.4 µM in [7], 18.4 µM in experiment [8], 5.21 µM in experiment [9] and 15.5 µM in experiment [10].
On to `COc1cc(-n2cc(-c3ccc(Cl)c(Cl)c3)nc2SCc2ccccc2)cc(OC)c1OC`, for which the GI50 is > 100 µM in [1]; > 100 µM in [2]; 55.9 µM in experiment [3]; > 100 µM in experiment [4]; 38.9 µM in experiment [5]; > 100 µM in [6]. The GI50 in [7], in experiment [8], in experiment [9] and in [10] was > 100 µM throughout. The TGI in experiment [1], in [2], in [3], in experiment [4], in experiment [5] and in experiment [6] was > 100 µM throughout. Besides, the TGI in experiment [7], in experiment [8], in [9] and in experiment [10] was > 100 µM each time.
With `N#CC(=C1SCS1)[N+](=O)[O-]`, the GI50 is 2.4 µM in [1]; 2.14 µM in experiment [2]; 0.639 µM in [3]; 3.16 µM in experiment [4]; 5.11 µM in experiment [5]; 0.678 µM in experiment [6]. The GI50 in experiment [7] is 3.64 µM; in experiment [8], 3.68 µM; in [9] it was 2.37 µM; in experiment [10], 2.29 µM. Further, the TGI in experiment [1] was 13.2 µM; in experiment [2], 16.2 µM; in [3], 6.5 µM; in experiment [4], 13.8 µM; in experiment [5] it was 20.7 µM; in experiment [6] it was 4.06 µM. For the same compound, the TGI came to 20.1 µM in [7], 13.4 µM in experiment [8], 10.8 µM in experiment [9] and 13.6 µM in experiment [10].
Regarding `N/C(CC(=O)Nc1cc(C(F)(F)F)ccc1Cl)=N\O`, the TGI in experiment [1], in [2], in experiment [3], in [4], in experiment [5] and in experiment [6] was > 100 µM in each case. Further, the TGI in experiment [7], in [8], in experiment [9] and in experiment [10] was > 100 µM throughout.
Consider `CC(C)(C)OC(=O)NC(Cc1ccccc1)C(=O)OCN1C(=O)C2C3C=CC(C2C1=O)C1C2C(=O)N(COC(=O)C(Cc4ccccc4)NC(=O)OC(C)(C)C)C(=O)C2C31` (stereo not given), for which the TGI in [1] was > 100 µM; in experiment [2], > 100 µM; in experiment [3], 82.4 µM; in [4], > 100 µM; in experiment [5], > 100 µM; in experiment [6], > 100 µM. In addition, the TGI is > 88.9 µM in [7], > 91.2 µM in [8], > 100 µM in experiment [9] and > 100 µM in [10].
In the case of `CC(C)(C)OC(=O)n1cc(CNC(=S)Nc2ccccc2)c2ccccc21`, the GI50 in [1] is 5.12 µM; in experiment [2], 4.68 µM; in experiment [3], 3.88 µM; in [4], 16.9 µM; in experiment [5], 10.5 µM; in experiment [6], 3.27 µM. For the same compound, the GI50 in experiment [7] was 11.4 µM; in experiment [8], 14.6 µM; in experiment [9] it was 4.18 µM; in experiment [10] it was 13.3 µM. Moreover, the TGI in experiment [1] was 19.6 µM; in experiment [2], 23.2 µM; in experiment [3], > 100 µM; in experiment [4], 35.4 µM; in [5], 23 µM; in experiment [6], 16.4 µM. The TGI in experiment [7] came out at 33.1 µM; in experiment [8], 53.9 µM; in [9], 16 µM; in experiment [10] it was 26.1 µM.
Consider `O=C(CSc1nc2ccc([N+](=O)[O-])cc2[nH]1)Nc1ccc(F)c(Cl)c1`, for which the GI50 in experiment [1] was 2.35 µM; in experiment [2], 1.95 µM; in experiment [3], 2.7 µM; in experiment [4] it was 3.04 µM; in [5], 2.57 µM; in experiment [6], 1.39 µM. The GI50 in [7] is 2.91 µM; in [8], 4.08 µM; in experiment [9], 2.5 µM; in experiment [10], 1.63 µM. The TGI in experiment [1] was 7.93 µM; in experiment [2] it was 7.33 µM; in [3] it was 19.9 µM; in experiment [4], > 34.4 µM; in experiment [5] it was 11.6 µM; in [6], > 21.5 µM. Also, the TGI in [7] turned out to be 13.2 µM; in experiment [8] it was 15.9 µM; in experiment [9], 12.3 µM; in experiment [10] it was 10.5 µM.
For the compound `C=CC(=O)N[C@H]1C=C(C)c2c(-c3cnc4ccccc4c3)c3c(N)ncnc3n2C1`, the GI50 in experiment [1] was 0.249 µM; in experiment [2], 1.82 µM; in experiment [3], 24.5 µM; in experiment [4], 16.7 µM; in experiment [5], 22.7 µM; in experiment [6], 17.9 µM. For the same compound, the GI50 in experiment [7] is 5.81 µM; in experiment [8] it was 0.0478 µM; in experiment [9], 21.4 µM; in [10], 8.05 µM. For the same compound, the TGI is 16.8 µM in [1]; 17.6 µM in experiment [2]; > 100 µM in [3]; > 100 µM in [4]; > 100 µM in experiment [5]; 60.6 µM in experiment [6]. Also, the TGI in [7] is 72.9 µM; in [8] it was 7.88 µM; in experiment [9] it was 68.2 µM; in [10], 24.8 µM.
As to `Cc1nn(-c2ccc(F)cc2)c2ncnc(Nc3ccc(NC(=O)Nc4ccc(Cl)c(C(F)(F)F)c4)cc3)c12`, the GI50 in [1] is 1.75 µM; in experiment [2] it was 1.83 µM; in [3], 2.67 µM; in experiment [4], 2.87 µM; in experiment [5], 1.03 µM; in [6], 1.71 µM. For the same compound, the GI50 is 3.55 µM in experiment [7], 2.85 µM in experiment [8], 1.49 µM in [9] and 2.65 µM in experiment [10]. For the same compound, the TGI in experiment [1] was 5.62 µM; in experiment [2], 4.75 µM; in experiment [3] it was 22.2 µM; in experiment [4], 10 µM; in [5] it was 3.98 µM; in [6], 9.54 µM. The TGI in experiment [7] is 21.8 µM; in experiment [8], 10.4 µM; in experiment [9] it was 3.62 µM; in experiment [10], 11.3 µM.
In the case of `CN1CCN(CC#Cc2cccc(C(=O)c3cnn(-c4ccc(F)cc4)c3N)c2)CC1`, the GI50 in experiment [1], in [2], in experiment [3], in experiment [4], in experiment [5] and in experiment [6] was > 25 µM in each case. The GI50 in experiment [7], in experiment [8], in experiment [9] and in [10] was > 25 µM throughout. The TGI in experiment [1], in experiment [2], in experiment [3], in experiment [4], in experiment [5] and in [6] was > 25 µM each time. Besides, the TGI in experiment [7], in experiment [8], in experiment [9] and in [10] was > 25 µM each time.
Consider `COc1ccc(NC(=O)Nc2n[nH]c3ccccc23)cc1`, for which the GI50 in experiment [1], in experiment [2], in experiment [3], in experiment [4], in [5] and in experiment [6] was > 100 µM throughout. The GI50 in experiment [7], in experiment [8], in experiment [9] and in experiment [10] was > 100 µM throughout. The TGI in experiment [1], in [2], in experiment [3], in experiment [4], in experiment [5] and in experiment [6] was > 100 µM throughout. The TGI in experiment [7], in [8], in [9] and in experiment [10] was > 100 µM each time.

(Values after PubChem BioAssay (NCI).)
